Experiments:
[1] = AE maximal score at Adenosine A3 receptor
[2] = AE maximal score at Adenosine A2A receptor
[3] = AE maximal score at Adenosine A1 receptor

Compound | EC50 [1] [µM] | EC50 [2] [pM] | EC50 [3] [µM]
COc1cc2c(cc1OC)-c1nc(N)sc1C2 | 794 | 1 | 
COc1ccc2c(c1)CCc1sc(N)nc1-2 |  |  | 0.002
CC(=O)Oc1ccc2c(c1)CCc1sc(N)nc1-2 |  |  | 158

From BindingDB's records for doi:10.1016/s0960-894x(02)00236-6 (University of Virginia, 2002)
